# Measured values reported in ChEMBL document CHEMBL1201862, “PubChem BioAssay data set” (2004).
# The source made the active and inactive calls.
# Tests used:
# [1] = target: Neuropeptide Y receptor type 2 (Homo sapiens, UniProt P49146); assay type: functional, cell-based;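 further: HEK293 cells expressing the receptor and a CNG channel; stimulus was NPY near EC95 followed by isoproterenol to raise cAMP; antagonist potency measured as restoring cAMP signal that NPY suppresses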
# [2] = target: Neuropeptide Y receptor type 1 (Homo sapiens, UniProt P25929); assay type: functional;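 further: HEK293 cells with a CNG channel challenged with NPY then isoproterenol; potency as antagonist that reverses NPY suppression of cAMP signal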
# Sequence of Neuropeptide Y receptor type 1 (P25929 whole entry): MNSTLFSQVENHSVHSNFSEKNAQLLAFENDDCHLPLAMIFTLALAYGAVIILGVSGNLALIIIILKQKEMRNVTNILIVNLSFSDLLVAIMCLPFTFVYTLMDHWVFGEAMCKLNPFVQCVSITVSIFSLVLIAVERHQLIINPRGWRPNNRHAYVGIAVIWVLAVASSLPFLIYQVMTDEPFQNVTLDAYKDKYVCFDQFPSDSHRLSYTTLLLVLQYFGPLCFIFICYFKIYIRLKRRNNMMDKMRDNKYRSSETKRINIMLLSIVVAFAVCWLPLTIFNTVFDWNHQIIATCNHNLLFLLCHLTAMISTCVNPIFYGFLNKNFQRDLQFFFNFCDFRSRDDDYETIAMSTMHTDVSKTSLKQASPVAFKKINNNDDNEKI
# [3] = Luminescence Cell-Based Dose Confirmation HTS to Identify Inhibitors of Platelet Dense Granule Release. [Related pubchem assays: 1663 (Primary HTS), 1678 (Summary of Project)]; assay type: functional
# [4] = target: Luciferin 4-monooxygenase (Photinus pyralis, UniProt P08659); experiment: inhibition of purified Photinus pyralis luciferase – biochemical, luminescence, dose response (AID 1891)
# Sequence of Luciferin 4-monooxygenase (P08659 whole entry): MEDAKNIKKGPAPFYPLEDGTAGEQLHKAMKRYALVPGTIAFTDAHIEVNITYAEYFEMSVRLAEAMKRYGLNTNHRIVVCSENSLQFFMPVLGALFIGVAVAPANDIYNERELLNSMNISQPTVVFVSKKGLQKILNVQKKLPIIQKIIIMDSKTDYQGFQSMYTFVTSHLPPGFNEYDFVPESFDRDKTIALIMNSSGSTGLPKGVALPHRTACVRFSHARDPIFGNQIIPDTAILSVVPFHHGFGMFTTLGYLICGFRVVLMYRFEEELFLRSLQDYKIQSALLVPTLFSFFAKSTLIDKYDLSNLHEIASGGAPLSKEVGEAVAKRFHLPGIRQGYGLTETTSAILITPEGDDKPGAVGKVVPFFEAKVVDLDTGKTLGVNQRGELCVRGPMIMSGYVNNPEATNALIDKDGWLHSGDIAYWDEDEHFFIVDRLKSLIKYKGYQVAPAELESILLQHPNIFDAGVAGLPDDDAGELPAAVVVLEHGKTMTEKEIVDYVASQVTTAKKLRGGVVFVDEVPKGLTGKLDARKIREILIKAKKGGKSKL
# [5] = target: T1, Mannose-6-phosphate isomerase (Homo sapiens, UniProt P34949); experiment: MPI enzyme activity inhibition – biochemical, fluorescence intensity, coupled assay, primary screen (AID 1209)
# T1 sequence (P34949 whole entry): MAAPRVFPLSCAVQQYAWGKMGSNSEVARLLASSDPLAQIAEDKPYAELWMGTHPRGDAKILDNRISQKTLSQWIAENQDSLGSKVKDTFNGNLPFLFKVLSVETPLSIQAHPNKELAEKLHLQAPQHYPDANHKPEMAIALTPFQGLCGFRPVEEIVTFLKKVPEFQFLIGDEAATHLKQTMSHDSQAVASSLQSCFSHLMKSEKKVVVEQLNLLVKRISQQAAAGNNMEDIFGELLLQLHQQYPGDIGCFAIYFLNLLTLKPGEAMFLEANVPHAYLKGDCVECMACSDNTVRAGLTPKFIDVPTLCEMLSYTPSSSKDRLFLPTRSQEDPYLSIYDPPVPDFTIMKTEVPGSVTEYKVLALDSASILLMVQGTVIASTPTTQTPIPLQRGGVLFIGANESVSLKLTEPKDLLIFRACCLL
# [6] = target: T1, Mannose-6-phosphate isomerase; experiment: MPI inhibition at elevated mannose 6-phosphate – biochemical, fluorescence intensity, high mannose 6-phosphate, primary screen (AID 1220)
# Streptococcus = experiment: Luminescence Microorganism-Based Dose Response Follow up to Identify Compounds Cytotoxic to Streptococcus. [Related pubchem assays: 1677 (Project Summary), 1915, 1914, 1902 (Retest at Dose), 1900 (Counter Screen), 1662 (Primary HTS)]; assay type: functional, organism-based
# [7] = Counterscreen for IDE inhibitors: Luminescence-based cell-based high throughput dose response assay to identify compounds that are cytotoxic to HEK cells. [Related pubchem assays: 434962 (Primary screen (IDE inhibitors in singlicate)), 449730 (Counterscreen (Cytotoxicity in triplicate)), 435028 (Confirmation (IDE inhibitors in triplicate)) …; assay type: functional; settings: HEK293
# Insulin-degrading enzyme = target: T2, Insulin-degrading enzyme (Homo sapiens, UniProt P14735); experiment: Dose Response: Fluorescence polarization-based cell-based high throughput dose response assay for inhibitors of insulin-degrading enzyme (IDE). [Related pubchem assays: 434962 (Primary screen (IDE inhibitors in singlicate)), 449730 (Counterscreen (Cytotoxicity in triplicate)), 435028 (Confirmation (IDE inhibitors in triplicate)), 434984 (Summary …; assay type: functional
# T2 sequence (P14735 whole entry): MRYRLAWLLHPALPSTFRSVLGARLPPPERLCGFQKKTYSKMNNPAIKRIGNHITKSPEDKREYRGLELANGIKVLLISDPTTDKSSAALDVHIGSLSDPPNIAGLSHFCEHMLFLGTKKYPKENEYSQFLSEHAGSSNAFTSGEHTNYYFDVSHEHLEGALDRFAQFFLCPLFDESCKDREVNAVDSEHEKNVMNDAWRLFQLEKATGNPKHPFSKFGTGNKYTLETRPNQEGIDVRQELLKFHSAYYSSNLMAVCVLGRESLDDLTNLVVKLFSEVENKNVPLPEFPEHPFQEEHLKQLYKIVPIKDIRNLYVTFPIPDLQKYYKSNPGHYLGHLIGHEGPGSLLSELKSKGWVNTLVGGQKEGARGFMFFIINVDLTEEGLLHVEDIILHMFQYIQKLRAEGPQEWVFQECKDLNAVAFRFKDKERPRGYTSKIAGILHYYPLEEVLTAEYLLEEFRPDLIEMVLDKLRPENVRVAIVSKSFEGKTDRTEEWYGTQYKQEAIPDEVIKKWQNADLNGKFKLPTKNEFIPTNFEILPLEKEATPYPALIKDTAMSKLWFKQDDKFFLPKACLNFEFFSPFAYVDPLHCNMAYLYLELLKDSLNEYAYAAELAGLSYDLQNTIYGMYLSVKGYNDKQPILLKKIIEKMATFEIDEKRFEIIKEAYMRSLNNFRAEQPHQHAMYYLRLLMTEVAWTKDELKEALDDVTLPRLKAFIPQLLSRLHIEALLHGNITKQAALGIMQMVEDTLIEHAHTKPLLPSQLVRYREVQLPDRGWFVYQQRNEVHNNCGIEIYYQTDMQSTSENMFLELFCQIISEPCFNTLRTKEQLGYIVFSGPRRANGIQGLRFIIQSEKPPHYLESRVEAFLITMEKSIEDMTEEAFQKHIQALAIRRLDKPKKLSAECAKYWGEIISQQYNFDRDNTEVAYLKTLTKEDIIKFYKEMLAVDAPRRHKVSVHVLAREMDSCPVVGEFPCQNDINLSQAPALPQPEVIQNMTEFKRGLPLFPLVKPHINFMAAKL
# Protein skinhead-1 = target: T3, Protein skinhead-1 (Caenorhabditis elegans, UniProt P34707); assay type: functional
# T3 sequence (P34707 whole entry): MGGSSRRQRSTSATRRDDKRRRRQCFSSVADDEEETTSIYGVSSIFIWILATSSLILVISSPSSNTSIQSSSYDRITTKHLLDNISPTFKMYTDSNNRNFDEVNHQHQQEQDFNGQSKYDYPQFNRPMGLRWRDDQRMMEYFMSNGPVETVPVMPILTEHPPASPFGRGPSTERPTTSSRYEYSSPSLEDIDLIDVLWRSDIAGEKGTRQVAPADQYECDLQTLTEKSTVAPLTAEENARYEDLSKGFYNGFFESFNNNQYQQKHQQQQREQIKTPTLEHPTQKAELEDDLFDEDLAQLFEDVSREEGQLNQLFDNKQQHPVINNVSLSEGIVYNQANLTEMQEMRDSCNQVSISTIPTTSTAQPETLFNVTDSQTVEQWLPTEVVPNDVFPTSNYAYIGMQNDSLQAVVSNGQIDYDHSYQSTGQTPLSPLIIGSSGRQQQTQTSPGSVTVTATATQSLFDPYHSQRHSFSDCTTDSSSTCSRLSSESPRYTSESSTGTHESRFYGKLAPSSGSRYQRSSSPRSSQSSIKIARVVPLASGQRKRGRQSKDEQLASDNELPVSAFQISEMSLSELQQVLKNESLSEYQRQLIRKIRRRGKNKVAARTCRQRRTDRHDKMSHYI
# Genome polyprotein = Genome polyprotein (dengue virus type 2, UniProt P29990); experiment: flavivirus cap methylation enzyme inhibition – biochemical, confirmation dose response, primary screen (AID 588689); assay type: functional
# Sequence of Genome polyprotein (P29990 2492-3391 limits assumed): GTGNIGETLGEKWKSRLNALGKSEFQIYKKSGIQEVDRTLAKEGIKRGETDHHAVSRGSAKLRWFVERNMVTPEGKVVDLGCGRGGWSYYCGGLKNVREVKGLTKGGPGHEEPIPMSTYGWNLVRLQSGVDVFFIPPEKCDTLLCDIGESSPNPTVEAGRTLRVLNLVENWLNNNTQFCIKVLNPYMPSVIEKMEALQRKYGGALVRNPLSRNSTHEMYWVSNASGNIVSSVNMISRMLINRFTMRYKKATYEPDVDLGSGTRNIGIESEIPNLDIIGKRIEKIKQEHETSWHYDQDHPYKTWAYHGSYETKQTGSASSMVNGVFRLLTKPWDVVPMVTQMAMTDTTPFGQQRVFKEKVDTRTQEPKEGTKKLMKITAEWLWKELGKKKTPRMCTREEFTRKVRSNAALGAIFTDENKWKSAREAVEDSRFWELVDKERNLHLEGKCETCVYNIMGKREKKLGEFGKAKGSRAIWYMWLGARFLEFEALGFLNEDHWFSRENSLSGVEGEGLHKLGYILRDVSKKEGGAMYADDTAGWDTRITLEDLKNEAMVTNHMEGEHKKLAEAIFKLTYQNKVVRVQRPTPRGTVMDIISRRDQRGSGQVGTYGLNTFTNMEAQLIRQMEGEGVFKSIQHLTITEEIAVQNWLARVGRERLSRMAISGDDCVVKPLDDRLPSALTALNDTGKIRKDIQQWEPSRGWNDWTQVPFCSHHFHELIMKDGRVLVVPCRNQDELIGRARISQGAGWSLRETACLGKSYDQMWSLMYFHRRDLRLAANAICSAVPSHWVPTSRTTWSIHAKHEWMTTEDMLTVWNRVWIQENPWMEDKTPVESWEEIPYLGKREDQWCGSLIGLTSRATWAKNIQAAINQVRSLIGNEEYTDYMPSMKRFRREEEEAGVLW
# [8] = target: T4, Replicative DNA helicase DnaB (Mycobacterium tuberculosis, UniProt P9WMR3); experiment: DnaB intein splicing inhibitors, dose response, biochemical, cell-free fluorescence (AID 449749); assay type: functional
# T4 sequence (P9WMR3 whole entry): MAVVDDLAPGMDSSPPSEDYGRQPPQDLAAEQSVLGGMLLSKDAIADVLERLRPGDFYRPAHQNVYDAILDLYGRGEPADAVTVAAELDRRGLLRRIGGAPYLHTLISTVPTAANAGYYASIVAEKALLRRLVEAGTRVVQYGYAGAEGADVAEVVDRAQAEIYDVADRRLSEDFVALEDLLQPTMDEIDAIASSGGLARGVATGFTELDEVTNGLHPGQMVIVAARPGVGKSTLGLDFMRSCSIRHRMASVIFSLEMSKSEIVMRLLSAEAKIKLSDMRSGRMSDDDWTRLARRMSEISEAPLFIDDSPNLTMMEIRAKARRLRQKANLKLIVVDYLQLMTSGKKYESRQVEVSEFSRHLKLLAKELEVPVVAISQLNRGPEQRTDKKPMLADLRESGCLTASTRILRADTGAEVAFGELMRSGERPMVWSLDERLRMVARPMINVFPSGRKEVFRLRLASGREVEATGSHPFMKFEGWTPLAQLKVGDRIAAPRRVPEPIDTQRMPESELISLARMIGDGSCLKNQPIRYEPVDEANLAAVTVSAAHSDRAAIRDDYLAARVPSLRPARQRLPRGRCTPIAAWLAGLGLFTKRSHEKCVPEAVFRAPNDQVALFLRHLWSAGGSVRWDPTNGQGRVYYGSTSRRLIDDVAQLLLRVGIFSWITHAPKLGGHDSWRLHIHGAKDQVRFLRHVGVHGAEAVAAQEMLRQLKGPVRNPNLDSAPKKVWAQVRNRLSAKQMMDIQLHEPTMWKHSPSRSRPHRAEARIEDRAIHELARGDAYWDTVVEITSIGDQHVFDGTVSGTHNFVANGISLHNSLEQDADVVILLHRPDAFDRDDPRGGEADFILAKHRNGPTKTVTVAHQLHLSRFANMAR
# Protein RecA = target: T5, Protein RecA (Mycobacterium tuberculosis, UniProt P9WHJ3); experiment: Fluorescence Cell-Free Homogeneous Dose Retest to Identify Inhibitors of RecA-Intein Splicing Activity. [Related pubchem assays (depositor defined):AID2097, AID2223, AID489010, AID492950]; assay type: functional
# T5 sequence (P9WHJ3 whole entry): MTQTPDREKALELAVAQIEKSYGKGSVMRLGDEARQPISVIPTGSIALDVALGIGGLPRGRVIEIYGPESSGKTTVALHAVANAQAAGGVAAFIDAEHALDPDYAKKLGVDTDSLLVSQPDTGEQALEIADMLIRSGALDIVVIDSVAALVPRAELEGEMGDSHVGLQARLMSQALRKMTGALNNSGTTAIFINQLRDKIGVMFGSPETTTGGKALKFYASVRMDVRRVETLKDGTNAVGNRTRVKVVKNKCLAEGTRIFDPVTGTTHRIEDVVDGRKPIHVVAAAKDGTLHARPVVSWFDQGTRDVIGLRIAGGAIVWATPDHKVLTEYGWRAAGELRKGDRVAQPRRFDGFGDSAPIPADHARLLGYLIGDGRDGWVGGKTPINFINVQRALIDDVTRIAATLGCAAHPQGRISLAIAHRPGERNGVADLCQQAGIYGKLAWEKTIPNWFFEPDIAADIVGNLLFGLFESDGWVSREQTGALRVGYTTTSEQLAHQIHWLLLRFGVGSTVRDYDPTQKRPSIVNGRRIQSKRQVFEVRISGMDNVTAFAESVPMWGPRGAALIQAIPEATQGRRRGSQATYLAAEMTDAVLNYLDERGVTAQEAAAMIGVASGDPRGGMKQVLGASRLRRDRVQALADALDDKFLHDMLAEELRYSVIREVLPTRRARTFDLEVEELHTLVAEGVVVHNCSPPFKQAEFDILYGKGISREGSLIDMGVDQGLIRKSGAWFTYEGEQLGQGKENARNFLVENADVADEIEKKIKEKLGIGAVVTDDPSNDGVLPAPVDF
# Sequence of Neuropeptide Y receptor type 2 (P49146 whole entry): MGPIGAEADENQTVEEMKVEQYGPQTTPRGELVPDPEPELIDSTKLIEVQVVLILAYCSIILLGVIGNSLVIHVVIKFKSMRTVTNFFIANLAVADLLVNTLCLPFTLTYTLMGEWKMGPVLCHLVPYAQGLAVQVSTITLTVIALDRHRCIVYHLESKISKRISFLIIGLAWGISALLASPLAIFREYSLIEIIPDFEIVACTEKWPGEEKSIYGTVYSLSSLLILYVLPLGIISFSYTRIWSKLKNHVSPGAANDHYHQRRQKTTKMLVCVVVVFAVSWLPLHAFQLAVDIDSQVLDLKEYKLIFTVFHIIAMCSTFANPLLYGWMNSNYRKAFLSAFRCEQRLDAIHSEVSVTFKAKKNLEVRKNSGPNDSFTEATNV
structure (smiles),measurement,setting,value
Cc1ccc(-c2cc(C(=O)Nc3ccc4c(c3)OCCO4)c3ccccc3n2)cc1,IC50,[1],5.35 µM (active)
same,IC50,[2],5.01 µM (active)
same,EC50,[3],16.9 µM (active)
same,EC50,[4],1.06 µM (active)
CC1(C)Oc2ccc3ccc(=O)oc3c2-c2cnoc21,IC50,[5],> 50 µM (not active)
same,IC50,[6],> 50 µM (not active)
O=C(CSc1ccccc1)N1c2ccccc2Sc2ccccc21,EC50,Streptococcus,239 µM (active)
CC(OC(=O)/C(C#N)=C/c1ccc(N(C)C)cc1)C(=O)N(C)c1ccccc1 (stereo not given),IC50,[7],40.3 µM (not active)
same,IC50,Insulin-degrading enzyme,21.4 µM (not active)
same,IC50,Protein skinhead-1,> 100 µM (inactive)
Cn1c(/N=C/c2c(O)ccc3ccccc23)nc2ccccc21,IC50,Genome polyprotein,9.6 µM (active)
same,IC50,[5],> 50 µM (not active)
same,AC50,[8],7.16 µM (active)
same,EC50,Protein RecA,5.19 µM (active)
same,IC50,[6],14.8 µM (active)
